Laboratory results reported in US6444837B1, “Synthesis and antiviral activity of a series of pyrophosphate analogs” (University of Southern California, priority 1998, dated 2002).

Experiments:
[1] = XTT-tetrazolium assay of compound toxicity to host cells; type: cell-based; settings: human; Table IV, six concentrations; read-out: TC50
Description: Culturing these cells in the presence of phobol ester induces a lytic infection cycle, resulting in the release of viral particles into the medium. Compound efficacy in this proposed assay was determined using the Taqman PCR technology, and compound toxicity to host cells was assessed using an XTT-tetrazolium assay.
1. BCBL-1 cells were counted by the trypan blue dye exclusion method, and the cell count/mL was determined. Cells were pelleted by centrifugation and washed once with PBS to minimize the basal level of virus released from untreated cells which spontaneously enter the lytic cycle and release virus.
2. Cells were resuspended in fresh media and adjusted to a cell density of 1×10^5 per mL. Cells were then plated in the interior wells of 96-well round-bottom microtiter plates in a volume of 50 μL per well.
3. The phorbol ester TPA was added to appropriate wells in a volume of 50 μL per well to yield a final concentration of 20 ng/mL. Medium was added in place of TPA in three wells to serve as a negative control.
4. Test compounds were diluted in DMSO to a stock concentration which is 400× the desired high concentration. These compounds were further diluted in complete medium in 1.2 mL titertubes to yield a solution which is 2× the desired high concentration. […]
2. […] Plates were read on UVMax microtiter plate reader at a wavelength of 450/650 nm.

Cytomegalovirus (CMV) = settings: clinical trials, AIDS patients; cited from earlier work
HHV-8 = test: quantitative PCR-based (Taqman) assay for agents active against HHV-8 in TPA-induced BCBL-1 cells; type: cell-based, human herpesvirus 8
Description: 3. […] Samples were incubated at 37° C. for 30 minutes.
4. […] Total reaction volumes were 50 μL.

[2] = in vivo; cited from earlier work
[3] = molecular target: HIV reverse transcriptase (Human immunodeficiency virus type 1 group M subtype B, UniProt P03366); settings: HIV RT; cited from earlier work

| SMILES | CC50 at 6 days [1] | efficacy in treatment of CMV infection (Cytomegalovirus (CMV)) | nephrotoxicity (Cytomegalovirus (CMV)) | TI (therapeutic index) (HHV-8) | IC50 (HHV-8; Human gammaherpesvirus 8, BCBL1, Table IV, six concentrations, Foscarnet value is average of six separate tests) | Activity (HHV-8; Table IV, by TI) | oral bioavailability [2] | IC50 [3] | antiviral activity against HHV-8 (in words) (HHV-8; bioassay with HHV-8) |
| --- | --- | --- | --- | --- | --- | --- | --- | --- | --- |
| O=C(O)P(=O)(O)O [Foscarnet, Trisodium phosphonoformate] | > 300 µM | efficacious | reversible nephrotoxicity | >38.9 | 7.7 µM | active | low | ~1 µM |  |
| CCCCCCCCCCCCCCOC(=O)P(=O)([O-])OC.[Na+] [ID# 8] |  |  |  |  |  |  |  |  | moderate to relatively high antiviral activity |
